# Experimental data taken from US20200102293A1, “LDHA ACTIVITY INHIBITORS” (ARCTIC PHARMA AS, priority 2017, published 2020).
# Key:
# [1] = target: LDHA (Homo sapiens, UniProt P00338); experiment: Coupled diaphorase assay, LDHA; type: biochemical; settings: 4-7 nM LDHA, 500 μM lactate, 150 μM NAD+, lactate to pyruvate direction
# Description: (§1) The inhibitory properties of the compounds were investigated using a coupled enzyme assay that links the lactate dehydrogenase (LDH) reaction to the production of fluorescent resorufin by diaphorase.
# (§2) Human lactate dehydrogenases (LDH) catalyze the reversible interconversion between pyruvate and lactate. LDH is capable of catalyzing both the forward (pyruvate to lactate) and the reverse (lactate to pyruvate) reaction, using either NADH or NAD+ as cofactor. The reaction proceeds in either direction dependent on various factors, such as substrate availability, the presence of necessary cofactors, temperature and pH. Different isoforms (LDH A, B, and C) of the enzyme favor different reaction directions—LDHA prefers the conversion from pyruvate to lactate, whereas LDHB preferentially oxidizes lactate to pyruvate.
# (§3) The coupled assay relies on the oxidation of NAD^+ to NADH throughout the conversion of lactate to pyruvate by LDH (isoforms A, B and C). The produced NADH serves as cofactor in the diaphorase reaction, which reduces non-fluorescent resazurin to fluorescent resorufin. Therefore, the assay indirectly monitors the rate of pyruvate production. Although the consumption of NADH can be directly monitored due to the intrinsic fluorescence of the molecule (excitation: 340 nm, emission: 460 nm) there are problems linked to the direct readout method. […] Shifting the assay to longer wavelengths by coupling the LDH reaction to the conversion of resazurin to fluorescent resorufin by diaphorase reduces this compound interference. The assay direction was thus chosen to provide a robust and reliable assay.
# (§4) Compounds were tested in duplicates using 2-fold, 3-fold or 4-fold serial dilutions including 11 individual concentrations, starting from 5000 μM to 30 μM. […] The controls allowed for the calculation of the percentage inhibition for each data point. […] Enzyme solution leading to final concentrations of 4-7 nM LDHA or 6 nM LDHB, as well as 0.2 U/mI diaphorase in the reaction well was dispensed into 384-well plates (Greiner bio-one) using a CyBi®-SELMA robotic pipettor. Compound dilutions and the enzyme were incubated for at least 20 min at room temperature. […] The reaction was quenched by the addition of a stop solution (final concentrations: 20 mM EDTA, 400 mM NaCl, 40 mM pyruvate). Fluorescence was read out after 5 min of incubation at an excitation wavelength of 560 nm and an emission wavelength of 590 nm on a Perkin Elmer Victor X plate reader.
# (§5) Therefore, an enzyme solution only containing diaphorase was incubated with the compound dilution series.
# (§6) Dose response curves were fitted in KaleidaGraph (www.synergy.com) or Dotmatics software package (www.dotmatics.com) using a standard 4-parameter fit (Levenberg-Marquardt fitting procedure), resulting in IC50 values for the test compounds.
# [2] = target: LDHB (Homo sapiens, UniProt P07195); experiment: Coupled diaphorase assay, LDHB; type: biochemical; settings: 6 nM LDHB, 500 μM lactate, 150 μM NAD+, lactate to pyruvate direction
# Sequence of LDHB (P07195 whole entry): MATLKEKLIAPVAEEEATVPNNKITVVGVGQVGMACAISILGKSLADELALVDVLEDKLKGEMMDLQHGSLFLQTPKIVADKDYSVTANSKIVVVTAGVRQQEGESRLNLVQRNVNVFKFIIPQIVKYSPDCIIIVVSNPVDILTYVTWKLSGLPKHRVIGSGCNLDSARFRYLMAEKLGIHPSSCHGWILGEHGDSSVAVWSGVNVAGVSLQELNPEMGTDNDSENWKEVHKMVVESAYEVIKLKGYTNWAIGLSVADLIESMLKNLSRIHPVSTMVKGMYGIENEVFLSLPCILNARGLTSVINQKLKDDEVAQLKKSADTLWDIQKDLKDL
# Description: as §1, §2, §3, §4, §5, §6
# [3] = system: MIA PaCa-2 human pancreatic cells; settings: MIA PaCa-2 cells; cited from earlier work
# [4] = in vivo; cited from earlier work
# [5] = system: LDH; settings: in vitro; cited from earlier work
# [6] = system: mice with temporal-lobe epilepsy; settings: directly injected into the hippocampus; cited from earlier work
IC50 [1] [µM],IC50 [2] [µM],Compound,also measured
1 to 100,> 200,"CCOC(=O)OC1=C(Sc2ccccc2Cl)C(=O)NC(c2ccc(Br)cc2)(c2ccsc2)C1 (stereo not drawn) [Example 1, 2-(4-bromophenyl)-5-[(2-chlorophenyl)sulfanyl]-6-oxo-2-(thiophen-3-yl)-1,2,3,6-tetrahydropyridin-4-yl ethyl carbonate]",
> 200,,"CC(C)COC(=O)OC1=C(Sc2ccccc2Cl)C(=O)NC(c2ccc(N3CCOCC3)cc2)(c2ccsc2)C1 (stereo not drawn) [Example 2, 5-((2-chlorophenyl)thio)-2-(4-morpholinophenyl)-6-oxo-2-(thiophen-3-yl)-1,2,3,6-tetrahydropyridin-4-yl isobutyl carbonate]",
> 200,> 200,"CCOC(=O)OC1=C(Sc2ccccc2Cl)C(=O)NC(c2ccsc2)(c2cccc(Br)n2)C1 (stereo not drawn) [Example 3, 6′-bromo-5-((2-chlorophenyl)thio)-6-oxo-2-(thiophen-3-yl)-1,2,3,6-tetrahydro-[2,2′-bipyridin]-4-yl ethyl carbonate]",
> 200,> 200,"COCCOC(=O)OC1=C(Sc2ccccc2Cl)C(=O)NC(c2ccsc2)(c2cccc(OCC3CCCC3)n2)C1 (stereo not drawn) [Example 4, 5-((2-chlorophenyl)thio)-6′-(cyclopentylmethoxy)-6-oxo-2-(thiophen-3-yl)-1,2,3,6-tetrahydro-[2,2′-bipyridin]-4-yl (2-methoxyethyl) carbonate]",
1 to 100,,"COC(=O)OC1=C(Sc2ccccc2Cl)C(=O)NC(c2ccc(N3CCOCC3)cc2)(c2ccsc2)C1 (stereo not drawn) [Example 5, 5-((2-chlorophenyl)thio)-2-(4-morpholinophenyl)-6-oxo-2-(thiophen-3-yl)-1,2,3,6-tetrahydropyridin-4-yl methyl carbonate]",
> 200,> 200,"COC(=O)OC1=C(Sc2ccccc2Cl)C(=O)NC(c2ccsc2)(c2ccc(Br)cn2)C1 (stereo not drawn) [Example 6, 5′-bromo-5-((2-chlorophenyl)thio)-6-oxo-2-(thiophen-3-yl)-1,2,3,6-tetrahydro-[2,2′-bipyridin]-4-yl methyl carbonate]",
1 to 100,100 to 200,"CCCCCCCCCC(=O)OC1=C(Sc2ccccc2Cl)C(=O)NC(c2ccsc2)(c2cccc(OC3COC3)n2)C1 (stereo not drawn) [Example 7, 5-((2-chlorophenyl)thio)-6′-(oxetan-3-yloxy)-6-oxo-2-(thiophen-3-yl)-1,2,3,6-tetrahydro-[2,2′-bipyridin]-4-yl decanoate]",
1 to 100,1 to 100,"O=C1CC(c2ccsc2)(c2cccc(OCC3CCCC3)n2)NC(=O)C1Sc1ccccc1Cl (stereo not drawn) [Example 9, 3-((2-chlorophenyl)thio)-6-(6-(cyclopentylmethoxy)pyridin-2-yl)-6-(thiophen-3-yl)piperidine-2,4-dione, reference compound]",
,,O=C1CC(c2ccc(N3CCOCC3)cc2)(c2ccsc2)NC(=O)C1Sc1ccccc1Cl (stereo not drawn) [GNE-140],time of continuous LDHA inhibition until cell death [3]: ≥ 2 days; clearance [4]: rapid clearance
,,NC(=O)C(=O)O [Oxamate],concentration range inhibiting LDH enzyme activity [5]: mM range; effect on seizures [6]: suppress their seizures
